Assays:
Format in all cases: in vivo
[1] = tested on: BBS12^-/- mice; experiment: Apoptosis of photoreceptors in BBS12 model: retinal explants and BBS12-/- mice (Experiments 1a, 1b); settings: another mouse model for Bardet-Biedl syndrome
Description: Experiment 1a: Effects of GLP-1 in ex-vivo model (retinal explants): In BBS12-deprived retinal explants and the Bbs12^/ murine model, impaired intraciliary transport results in protein retention in the endoplasmic reticulum. The protein overload activates a pro-apoptotic unfolded protein response leading to a specific Caspase12-mediated apoptosis of the photo-receptors. BBS12-deprived retinal explants are incubated with Ac-GLP-1 (7-34)amide and Caspase12-mediated apoptosis of the photo-receptors is compared to the apoptosis rate of BBS12-deprived retinal explants, which have been treated with the vehicle only.
• 15-day-old mice are sacrificed by decapitation, and the eyes are removed • First, the sclera is carefully removed, leaving the retinal pigmented epithelium attached to the eye ball. • Incisions are made at the edge of the cornea to remove cornea, lens, and hyaloid body. • Retinas are transferred, with retinal pigmented epithelium side down, to a culture membrane • Retina explants are maintained at 37 °C in a humidified 5% CO2 atmosphere. • Specific gene silencing with lentiviruses that carry a shRNA sequence for Bbs12 is performed. • Drugs are added to the culture medium […]

[2] = tested on: mice carrying the M390R mutation in the Bbs1 gene (Bbs1^M390R); experiment: Retinal degeneration (rod-cone dystrophy, retinal cell apoptosis) in Bbs1 M390R mice (Experiment 3); settings: the same mouse model for Bardet-Biedl syndrome
Description: (§1) Experiment 3: The purpose of the experiment is to study the effects of GLP-1 receptor agonists on • Development of rod-cone dystrophy in mice carrying the M390R mutation in the Bbs1 gene (Bbs1^M390R). In this particular experiment the GLP-1 receptor agonist used is acetyl-GLP-1(7-34)amide. The M390R mutation in the Bbs1 gene can also be found in human Bardet-Biedl syndrome.
Male Bbs1^M390R mice are used in the experiment. From postnatal day 6 to postnatal day 30 the experimental group is treated intraperitoneally with acetyl-GLP-1 (7-34)amide. Mice of the control group are treated during the same age period with vehicle.
Analysis of endpoints: comparison of control vs GLP-1 At the end of the treatment period, mice are investigated by use of electroretinography (ERG), optical coherence tomography (OCT) and histology.

[3] = tested on: leptin-resistant obese mice carrying the M390R mutation in the Bbs1 gene (Bbs1^M390R); experiment: Body weight and food intake of leptin-resistant obese Bbs1 M390R mice (Experiment 2); settings: mouse model for Bardet-Biedl syndrome with leptin resistance
Text: as §1, with “2:” for “3:”, “body weight and food intake” for “Development”, “leptin-resistant obese” for “rod-cone dystrophy in”, “(Bbs1^M390R) and on • body weight and food intake of lean wild type littermate controls, both groups fed ad libitum.” for “(Bbs1^M390R).”
Male 12-16 weeks old mice are housed in individual cages for 3-5 days to acclimate to single housing conditions before baseline body weight and 24-hour food intake is determined during 4 days. Then food intake and body weight is tested in response to treatment with acetyl-GLP-1(7-34)amide. […]
During the treatment period, mice continue to have free access to food. […] At the end of the 7-day treatment period, body composition is determined in live mice using nuclear magnetic resonance (NMR) tomography. Mice are then sacrificed and the weight of various organs and tissues including various fat depots, liver, kidneys, heart, lung and brain are measured. […]

SMILES: CC[C@H](C)[C@H](NC(=O)[C@H](Cc1ccccc1)NC(=O)[C@H](CCC(=O)O)NC(=O)[C@H](CCCCN)NC(=O)[C@H](C)NC(=O)[C@H](C)NC(=O)[C@H](CCC(N)=O)NC(=O)CNC(=O)[C@H](CCC(=O)O)NC(=O)[C@H](CC(C)C)NC(=O)[C@H](Cc1ccc(O)cc1)NC(=O)[C@H](CO)NC(=O)[C@H](CO)NC(=O)[C@@H](NC(=O)[C@H](CC(=O)O)NC(=O)[C@H](CO)NC(=O)[C@@H](NC(=O)[C@H](Cc1ccccc1)NC(=O)[C@@H](NC(=O)CNC(=O)[C@H](CCC(=O)O)NC(=O)[C@H](C)NC(=O)[C@H](Cc1c[nH]cn1)NC(C)=O)[C@@H](C)O)[C@@H](C)O)C(C)C)C(=O)N[C@@H](C)C(=O)N[C@@H](Cc1c[nH]c2ccccc12)C(=O)N[C@@H](CC(C)C)C(=O)N[C@H](C(=O)N[C@@H](CCCCN)C(N)=O)C(C)C [Ac-GLP-1 (7-34)amide, N-acetyl-GLP-1(7-34)amide]
- apoptosis of retinal cells [1]: inhibits apoptosis of retinal cells
- apoptosis of retinal cells [2]: inhibits apoptosis of retinal cells
- food intake [3]: inhibit food intake
- weight loss [3]: stimulate weight loss
